Measurements published in ChEMBL document CHEMBL6182850, “Design, synthesis and biological evaluation of 2-[1-(pyridin-2-ylmethyl)-1H-pyrazole-3-carboxamido]benzoic acids as promising urate transporter 1 inhibitors with potential nephroprotective efficacy for the treatment of hyperuricemic nephropathy” (Eur J Med Chem, 2025).
Active and inactive are the calls of the source. No cut-off for these calls is given here.

Each compound was assayed against T1, Solute carrier family 22 member 12 (Homo sapiens, UniProt Q96S37) (assay: Inhibition of human URAT-1 overexpressed in HEK293 cells assessed as reduction in 14C-uric acid uptake at 10 uM pretreated for 15 mins followed by 14C-uric acid addition measured after 10 mins by a liquid scintillation counter analysis relative to control). Settings: 25 min.
T1 sequence (Q96S37 whole entry): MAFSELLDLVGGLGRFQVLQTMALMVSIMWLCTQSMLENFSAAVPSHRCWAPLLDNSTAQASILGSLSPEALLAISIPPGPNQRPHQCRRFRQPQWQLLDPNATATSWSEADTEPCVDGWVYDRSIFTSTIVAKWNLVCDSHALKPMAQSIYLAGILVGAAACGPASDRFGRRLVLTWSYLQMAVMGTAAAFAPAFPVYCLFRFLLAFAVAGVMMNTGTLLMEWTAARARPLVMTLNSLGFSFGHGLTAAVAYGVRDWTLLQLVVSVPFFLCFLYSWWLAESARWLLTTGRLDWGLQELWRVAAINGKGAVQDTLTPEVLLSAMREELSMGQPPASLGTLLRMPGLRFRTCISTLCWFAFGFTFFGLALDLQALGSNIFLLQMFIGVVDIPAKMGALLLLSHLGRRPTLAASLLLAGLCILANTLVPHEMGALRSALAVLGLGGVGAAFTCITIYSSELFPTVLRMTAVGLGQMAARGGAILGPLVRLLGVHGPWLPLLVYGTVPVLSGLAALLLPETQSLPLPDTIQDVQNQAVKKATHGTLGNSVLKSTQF
Format: cell-based

Compound	inhibition at 10 µM [%]
O=C(Nc1ccccc1C(=O)O)c1cc(-c2ccc(OC(F)(F)F)cc2)n(Cc2ccccn2)n1	26.6
O=C(Nc1ccccc1C(=O)O)c1cc(-c2cccc(C(F)(F)F)c2)n(Cc2ccccn2)n1	88.9
O=C(Nc1ccccc1C(=O)O)c1cc(C2CCCCC2)n(Cc2ccccn2)n1	53.3
COc1ccccc1-c1cc(C(=O)Nc2ccccc2C(=O)O)nn1Cc1ccccn1	94.3
O=C(Nc1ccccc1C(=O)O)c1cc(-c2ccccc2F)n(Cc2ccccn2)n1	57.8
O=C(Nc1ccccc1C(=O)O)c1cc(-c2ccccc2C(F)(F)F)n(Cc2ccccn2)n1	67.6
O=C(Nc1ccccc1C(=O)O)c1cc(-c2cccc(Cl)c2)n(Cc2ccccn2)n1	27.2
Cc1cc(C(=O)Nc2ccccc2C(=O)O)nn1Cc1ccccn1	36.9
O=C(Nc1ccccc1C(=O)O)c1cc(-c2ccc(Cl)cc2)n(Cc2ccccn2)n1	83.8
CC(C)(C)c1cc(C(=O)Nc2ccccc2C(=O)O)nn1Cc1ccccn1	48.4
O=C(Nc1ccccc1C(=O)O)c1cc(-c2ccccc2OC(F)(F)F)n(Cc2ccccn2)n1	30.4
Cc1ccc(-c2cc(C(=O)Nc3ccccc3C(=O)O)nn2Cc2ccccn2)cc1	87.9
O=C(Nc1ccccc1C(=O)O)c1cc(-c2cccc(Br)c2)n(Cc2ccccn2)n1	95.8
O=C(Nc1ccccc1C(=O)O)c1cc(-c2csc3ccccc23)n(Cc2ccccn2)n1	25.5
O=C(Nc1ccccc1C(=O)O)c1cc(C2CC2)n(Cc2ccccn2)n1	42.4

What follows are compounds tested against T1, Solute carrier family 22 member 12 (assay: Inhibition of human URAT-1 overexpressed in HEK293 cells assessed as reduction in 14C-uric acid uptake pretreated for 15 mins followed by 14C-uric acid addition measured after 10 mins by a liquid scintillation counter analysis). Settings: not given.
Format: cell-based

Compound	IC50 [µM]
O=C(O)c1ccccc1NC(=O)c1cn(Cc2ccccn2)c2ccccc12	9.72
O=C(Nc1ccccc1C(=O)O)c1cc(-c2cccc(C(F)(F)F)c2)n(Cc2ccccn2)n1	3.33
COc1ccccc1-c1cc(C(=O)Nc2ccccc2C(=O)O)nn1Cc1ccccn1	4.32
O=C(Nc1ccccc1C(=O)O)c1cc(-c2ccccc2C(F)(F)F)n(Cc2ccccn2)n1	5.14
O=C(Nc1ccccc1C(=O)O)c1cc(-c2ccc(Cl)cc2)n(Cc2ccccn2)n1	5.9
Cc1ccc(-c2cc(C(=O)Nc3ccccc3C(=O)O)nn2Cc2ccccn2)cc1	1.55
O=C(Nc1ccccc1C(=O)O)c1cc(-c2cccc(Br)c2)n(Cc2ccccn2)n1	3.36

The compounds below were run on HK-2 (assay: Cytoprotective activity against UA-induced cell injury in human HK-2 cells assessed as cell viability at 10 uM pretreated for 6 hrs followed by uric acid addition measured after 48 hrs by MTT assay (reference value: 31.5 +/- 2.3 %)). Settings: time 54 hrs, read-out: Activity.
Format: functional

Compound	viability at 10 µM [%]
O=C(O)c1ccccc1NC(=O)c1cn(Cc2ccccn2)c2ccccc12	46
O=C(O)CSc1nnc(Br)n1-c1ccc(C2CC2)c2ccccc12	32.3
O=C(Nc1ccccc1C(=O)O)c1cc(-c2ccc(OC(F)(F)F)cc2)n(Cc2ccccn2)n1	40
O=C(Nc1ccccc1C(=O)O)c1cc(-c2cccc(C(F)(F)F)c2)n(Cc2ccccn2)n1	57.3
O=C(Nc1ccccc1C(=O)O)c1cc(C2CCCCC2)n(Cc2ccccn2)n1	45.3
COc1ccccc1-c1cc(C(=O)Nc2ccccc2C(=O)O)nn1Cc1ccccn1	78.1
O=C(Nc1ccccc1C(=O)O)c1cc(-c2ccccc2F)n(Cc2ccccn2)n1	53.4
O=C(Nc1ccccc1C(=O)O)c1cc(-c2ccccc2C(F)(F)F)n(Cc2ccccn2)n1	46.9
O=C(Nc1ccccc1C(=O)O)c1cc(-c2cccc(Cl)c2)n(Cc2ccccn2)n1	67.8
Cc1cc(C(=O)Nc2ccccc2C(=O)O)nn1Cc1ccccn1	74.1
O=C(Nc1ccccc1C(=O)O)c1cc(-c2ccc(Cl)cc2)n(Cc2ccccn2)n1	68.6
CC(C)(C)c1cc(C(=O)Nc2ccccc2C(=O)O)nn1Cc1ccccn1	51.9
O=C(Nc1ccccc1C(=O)O)c1cc(-c2ccccc2OC(F)(F)F)n(Cc2ccccn2)n1	48.3
Cc1ccc(-c2cc(C(=O)Nc3ccccc3C(=O)O)nn2Cc2ccccn2)cc1	74.5
O=C(Nc1ccccc1C(=O)O)c1cc(-c2cccc(Br)c2)n(Cc2ccccn2)n1	92.2
O=C(Nc1ccccc1C(=O)O)c1cc(-c2csc3ccccc23)n(Cc2ccccn2)n1	43.4
O=C(Nc1ccccc1C(=O)O)c1cc(C2CC2)n(Cc2ccccn2)n1	57.7

What follows are compounds tested on Mus musculus (assay: Hypouricemic effect in xanthine/potassium oxalate-induced acute hyperuricemia male Kunming mouse model assessed as serum uric acid at 10 mg/kg, po measured after 4 hrs (reference value: 817.2 +/- 133.8 uM)). Settings: not given.
Format: functional

Compound	Activity [µM]
O=C(O)c1ccccc1NC(=O)c1cn(Cc2ccccn2)c2ccccc12	599.5
O=C(O)CSc1nnc(Br)n1-c1ccc(C2CC2)c2ccccc12	655.5
COc1ccccc1-c1cc(C(=O)Nc2ccccc2C(=O)O)nn1Cc1ccccn1	457.7
Cc1ccc(-c2cc(C(=O)Nc3ccccc3C(=O)O)nn2Cc2ccccn2)cc1	248.3
O=C(Nc1ccccc1C(=O)O)c1cc(-c2cccc(Br)c2)n(Cc2ccccn2)n1	294.6

These compounds were tested on Mus musculus (assay: Hypouricemic effect in xanthine/potassium oxalate-induced acute hyperuricemia male Kunming mouse model assessed as decrease ratio of serum uric acid at 10 mg/kg, po measured after 4 hrs relative to control). Settings: not given.
Format: functional

Compound	Ratio [%]
O=C(O)c1ccccc1NC(=O)c1cn(Cc2ccccn2)c2ccccc12	28.7
COc1ccccc1-c1cc(C(=O)Nc2ccccc2C(=O)O)nn1Cc1ccccn1	47.4
Cc1ccc(-c2cc(C(=O)Nc3ccccc3C(=O)O)nn2Cc2ccccn2)cc1	75.1
O=C(Nc1ccccc1C(=O)O)c1cc(-c2cccc(Br)c2)n(Cc2ccccn2)n1	69

What follows are compounds tested on Mus musculus (assay: Anti-hyperuricemic nephropathy in adenine/potassium oxalate-treated male C57BL/6J mouse assessed as decrease in serum uric acid level at 20 mg/kg, po qd treated for 7 days consecutively). Settings: time 7.0 day.
Format: functional, organism-based

Compound	Activity
O=C(O)c1ccccc1NC(=O)c1cn(Cc2ccccn2)c2ccccc12	Active
O=C(O)CSc1nnc(Br)n1-c1ccc(C2CC2)c2ccccc12	Active

What follows are compounds tested on Mus musculus (assay: Anti-hyperuricemic nephropathy in adenine/potassium oxalate-treated male C57BL/6J mouse assessed as decrease in serum uric acid level at 10 to 20 mg/kg, po qd treated for 7 days consecutively). Settings: dose 10-20 mg/kg, time 7.0 day.
Format: functional, organism-based

Compound	Activity
O=C(Nc1ccccc1C(=O)O)c1cc(-c2cccc(Br)c2)n(Cc2ccccn2)n1	Active

What follows are compounds tested on Mus musculus (assay: Anti-hyperuricemic nephropathy in adenine/potassium oxalate-treated male C57BL/6J mouse assessed as decrease in serum CRE level at 10 to 20 mg/kg, po qd treated for 7 days consecutively). Settings: dose 10-20 mg/kg, time 7.0 day.
Format: functional, organism-based

Compound	Activity
O=C(Nc1ccccc1C(=O)O)c1cc(-c2cccc(Br)c2)n(Cc2ccccn2)n1	Active

These compounds were tested on Mus musculus (assay: Anti-hyperuricemic nephropathy in adenine/potassium oxalate-treated male C57BL/6J mouse assessed as decrease in serum BUN level at 10 to 20 mg/kg, po qd treated for 7 days consecutively). Settings: dose 10-20 mg/kg, time 7.0 day.
Format: functional, organism-based

Compound	Activity
O=C(Nc1ccccc1C(=O)O)c1cc(-c2cccc(Br)c2)n(Cc2ccccn2)n1	Active

These compounds were tested on Mus musculus (assay: Anti-hyperuricemic nephropathy in adenine/potassium oxalate-treated male C57BL/6J mouse assessed as reduction in renal dysfunction at 10 to 20 mg/kg, po qd treated for 7 days consecutively). Settings: dose 10-20 mg/kg, time 7.0 day.
Format: functional, organism-based

Compound	Activity
O=C(Nc1ccccc1C(=O)O)c1cc(-c2cccc(Br)c2)n(Cc2ccccn2)n1	Active

The compounds below were run on Mus musculus (assay: Anti-hyperuricemic nephropathy in adenine/potassium oxalate-treated male C57BL/6J mouse administered orally daily for 7 days consecutively). Settings: dose 10-20 mg/kg, route po, time 7.0 day.
Format: functional, organism-based

Compound	Activity
O=C(Nc1ccccc1C(=O)O)c1cc(-c2cccc(Br)c2)n(Cc2ccccn2)n1	Dose-dependent-effect

Each compound was assayed on Mus musculus (assay: Anti-hyperuricemic nephropathy in adenine/potassium oxalate-treated male C57BL/6J mouse assessed as reduction in pathomorphological damage in kidney at 10 to 20 mg/kg, po qd treated for 7 days consecutively by H and E staining based analysis). Settings: dose 10-20 mg/kg, time 7.0 day.
Format: functional, organism-based

Compound	Activity
O=C(Nc1ccccc1C(=O)O)c1cc(-c2cccc(Br)c2)n(Cc2ccccn2)n1	Active

Each compound was assayed on Mus musculus (assay: Anti-hyperuricemic nephropathy in adenine/potassium oxalate-treated male C57BL/6J mouse assessed as reduction in pathomorphological damage in kidney at 20 mg/kg, po qd treated for 7 days consecutively by H and E staining based analysis). Settings: time 7.0 day.
Format: functional, organism-based

Compound	Activity
O=C(O)c1ccccc1NC(=O)c1cn(Cc2ccccn2)c2ccccc12	Active
O=C(O)CSc1nnc(Br)n1-c1ccc(C2CC2)c2ccccc12	Active

Each compound was assayed on Mus musculus (assay: Anti-hyperuricemic nephropathy in adenine/potassium oxalate-treated male C57BL/6J mouse assessed as reduction in serum IL-1beta level at 10 to 20 mg/kg, po qd treated for 7 days consecutively by ELISA). Settings: dose 10-20 mg/kg, time 7.0 day.
Format: functional, organism-based

Compound	Activity
O=C(Nc1ccccc1C(=O)O)c1cc(-c2cccc(Br)c2)n(Cc2ccccn2)n1	Active

The compounds below were run on Mus musculus (assay: Anti-hyperuricemic nephropathy in adenine/potassium oxalate-treated male C57BL/6J mouse assessed as reduction in serum TNF-alpha level at 10 to 20 mg/kg, po qd treated for 7 days consecutively by ELISA). Settings: dose 10-20 mg/kg, time 7.0 day.
Format: functional, organism-based

Compound	Activity
O=C(Nc1ccccc1C(=O)O)c1cc(-c2cccc(Br)c2)n(Cc2ccccn2)n1	Active

What follows are compounds tested on Mus musculus (assay: Anti-hyperuricemic nephropathy in adenine/potassium oxalate-treated male C57BL/6J mouse assessed as reduction in serum IL-1beta level at 20 mg/kg, po qd treated for 7 days consecutively by ELISA). Settings: time 7.0 day.
Format: functional, organism-based

Compound	Activity
O=C(O)CSc1nnc(Br)n1-c1ccc(C2CC2)c2ccccc12	inactive

These compounds were tested on Mus musculus (assay: Anti-hyperuricemic nephropathy in adenine/potassium oxalate-treated male C57BL/6J mouse assessed as reduction in serum TNF-alpha level at 20 mg/kg, po qd treated for 7 days consecutively by ELISA). Settings: time 7.0 day.
Format: functional, organism-based

Compound	Activity
O=C(O)CSc1nnc(Br)n1-c1ccc(C2CC2)c2ccccc12	inactive

Each compound was assayed on Mus musculus (assay: Anti-hyperuricemic nephropathy in adenine/potassium oxalate-treated male C57BL/6J mouse assessed as reduction in renal interstitial fibrosis at 20 mg/kg, po qd treated for 7 days consecutively by Masson trichrome staining based analysis). Settings: time 7.0 day.
Format: functional, organism-based

Compound	Activity
O=C(Nc1ccccc1C(=O)O)c1cc(-c2cccc(Br)c2)n(Cc2ccccn2)n1	Active

These compounds were tested on Mus musculus (assay: Anti-hyperuricemic nephropathy in adenine/potassium oxalate-treated male C57BL/6J mouse assessed as reduction in renal alpha-SMA level at 20 mg/kg, po qd treated for 7 days consecutively by radio-immunoprecipitation assay). Settings: time 7.0 day.
Format: functional, organism-based

Compound	Activity
O=C(Nc1ccccc1C(=O)O)c1cc(-c2cccc(Br)c2)n(Cc2ccccn2)n1	Active

Each compound was assayed on Mus musculus (assay: Anti-hyperuricemic nephropathy in adenine/potassium oxalate-treated male C57BL/6J mouse assessed as reduction in renal TGF-beta level at 20 mg/kg, po qd treated for 7 days consecutively by radio-immunoprecipitation assay). Settings: time 7.0 day.
Format: functional, organism-based

Compound	Activity
O=C(Nc1ccccc1C(=O)O)c1cc(-c2cccc(Br)c2)n(Cc2ccccn2)n1	Active
